Common to all, as to assay type: cell-based
Assay [1] addresses T1, Piezo1 (Homo sapiens, UniProt Q92508). In words: partial agonist; […] pretreatment reduces […] Yoda1-evoked Ca2+ entry in Piezo1 T-REx HEK […] cells. As to conditions: TREx-HEK; read-out: % inhibition of Yoda1 response at 10 μM.
For assay [2], the target named is T1, Piezo1. Description: inhibition of […] Yoda1-evoked Ca2+ entry in Piezo1 T-REx HEK […] cells; reversible; also Tl+ flux and HUVECs (IC50 […]).
In assay [3] the target is T1, Piezo1. In words: Ca2+ entry at […] in Piezo1 T-REx HEK […] cells ([…] of Yoda1 response); also reduces Yoda1 response. The note with it: TREx-HEK; read-out: % of 10 μM Yoda1 response.
The target in assay [4] is T1, Piezo1. In words: intracellular Ca2+ (fura-2) in Piezo1 T-REx HEK […] cells; no response in cells without Piezo1; EC50 […] in HUVECs.
For assay [5], the target named is T1, Piezo1. In words: Ca2+ entry at […] in Piezo1 T-REx HEK […] cells ([…] of Yoda1 response); also reduces Yoda1 response. As to conditions: TREx-HEK; read-out: % of 10 μM Yoda1 response. This is another data set of the same source.

Read-outs that look alike come from different tables or passages of the source.

As a reminder, the inhibition is the percentage by which the read-out fell short of the control. In general, IC50 refers to the concentration at which inhibition is half-maximal. A low value points to greater potency in that assay. In general, EC50 refers to the concentration needed to bring the measured effect to its halfway point. Low values mean greater potency, high ones weaker potency.

T1 sequence (Q92508 whole entry): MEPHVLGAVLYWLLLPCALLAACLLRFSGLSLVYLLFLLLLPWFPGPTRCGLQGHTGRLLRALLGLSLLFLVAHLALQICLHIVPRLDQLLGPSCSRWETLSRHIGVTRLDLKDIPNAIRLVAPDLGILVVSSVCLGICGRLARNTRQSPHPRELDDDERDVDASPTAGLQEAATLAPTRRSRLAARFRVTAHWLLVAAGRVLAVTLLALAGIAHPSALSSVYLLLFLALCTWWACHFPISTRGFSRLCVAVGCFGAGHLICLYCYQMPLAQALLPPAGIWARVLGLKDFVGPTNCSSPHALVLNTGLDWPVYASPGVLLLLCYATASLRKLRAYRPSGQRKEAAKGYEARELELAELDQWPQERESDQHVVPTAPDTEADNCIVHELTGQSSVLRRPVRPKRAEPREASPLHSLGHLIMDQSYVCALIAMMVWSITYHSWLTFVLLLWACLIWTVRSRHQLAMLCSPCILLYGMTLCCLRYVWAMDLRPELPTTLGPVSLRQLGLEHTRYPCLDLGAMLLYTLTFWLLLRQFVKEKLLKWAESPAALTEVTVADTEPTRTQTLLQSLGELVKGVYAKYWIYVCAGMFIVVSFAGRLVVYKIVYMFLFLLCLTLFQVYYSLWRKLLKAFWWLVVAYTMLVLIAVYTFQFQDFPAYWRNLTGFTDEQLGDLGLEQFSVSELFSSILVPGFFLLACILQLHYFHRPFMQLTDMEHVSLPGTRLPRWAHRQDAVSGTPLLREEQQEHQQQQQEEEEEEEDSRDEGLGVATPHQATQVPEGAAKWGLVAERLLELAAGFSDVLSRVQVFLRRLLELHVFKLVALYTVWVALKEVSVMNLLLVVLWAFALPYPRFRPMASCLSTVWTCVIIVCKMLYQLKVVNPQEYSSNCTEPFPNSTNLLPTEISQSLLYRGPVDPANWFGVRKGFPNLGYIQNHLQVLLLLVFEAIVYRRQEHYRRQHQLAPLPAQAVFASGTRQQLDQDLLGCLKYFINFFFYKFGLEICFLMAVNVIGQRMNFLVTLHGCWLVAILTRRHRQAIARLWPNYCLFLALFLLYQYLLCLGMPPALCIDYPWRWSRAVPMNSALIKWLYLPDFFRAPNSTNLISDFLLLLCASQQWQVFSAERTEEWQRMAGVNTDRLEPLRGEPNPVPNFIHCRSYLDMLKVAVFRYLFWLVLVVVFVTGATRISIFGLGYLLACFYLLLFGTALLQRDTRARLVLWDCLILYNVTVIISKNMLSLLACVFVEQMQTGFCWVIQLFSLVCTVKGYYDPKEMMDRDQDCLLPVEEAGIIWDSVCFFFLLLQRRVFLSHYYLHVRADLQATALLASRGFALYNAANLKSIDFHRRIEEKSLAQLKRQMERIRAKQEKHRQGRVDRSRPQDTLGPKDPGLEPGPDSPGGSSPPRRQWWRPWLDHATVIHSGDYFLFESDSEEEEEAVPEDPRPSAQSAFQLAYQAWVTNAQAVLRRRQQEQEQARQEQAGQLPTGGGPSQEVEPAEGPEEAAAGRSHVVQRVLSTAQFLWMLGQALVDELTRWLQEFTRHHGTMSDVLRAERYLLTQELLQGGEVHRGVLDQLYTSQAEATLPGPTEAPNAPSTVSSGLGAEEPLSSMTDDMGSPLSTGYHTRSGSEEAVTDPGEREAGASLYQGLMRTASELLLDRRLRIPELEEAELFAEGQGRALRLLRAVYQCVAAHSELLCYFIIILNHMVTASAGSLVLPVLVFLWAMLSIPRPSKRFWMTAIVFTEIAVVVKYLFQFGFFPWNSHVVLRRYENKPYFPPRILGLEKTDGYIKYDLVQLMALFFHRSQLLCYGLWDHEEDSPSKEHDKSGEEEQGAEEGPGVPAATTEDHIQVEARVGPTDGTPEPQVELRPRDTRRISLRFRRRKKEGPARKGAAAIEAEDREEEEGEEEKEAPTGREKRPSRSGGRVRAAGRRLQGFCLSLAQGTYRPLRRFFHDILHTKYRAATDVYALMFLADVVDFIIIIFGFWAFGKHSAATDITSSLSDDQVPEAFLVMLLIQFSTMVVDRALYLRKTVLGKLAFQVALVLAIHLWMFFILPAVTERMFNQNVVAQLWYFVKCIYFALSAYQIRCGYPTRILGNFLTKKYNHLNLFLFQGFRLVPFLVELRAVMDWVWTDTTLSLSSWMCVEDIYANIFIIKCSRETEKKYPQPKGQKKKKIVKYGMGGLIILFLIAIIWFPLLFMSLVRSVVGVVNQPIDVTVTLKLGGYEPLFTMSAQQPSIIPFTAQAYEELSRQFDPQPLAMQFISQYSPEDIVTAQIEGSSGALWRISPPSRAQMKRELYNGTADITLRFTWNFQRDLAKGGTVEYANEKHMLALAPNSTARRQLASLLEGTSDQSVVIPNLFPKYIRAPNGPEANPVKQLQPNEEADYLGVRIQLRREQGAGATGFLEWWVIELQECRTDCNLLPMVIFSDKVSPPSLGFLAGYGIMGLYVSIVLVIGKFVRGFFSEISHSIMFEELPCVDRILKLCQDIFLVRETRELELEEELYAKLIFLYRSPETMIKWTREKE

Regarding `Clc1cccc(Cl)c1CSc1nnc(-c2ccccn2)o1` [2j], the inhibition at 10 µM at Piezo1 [1] was around 75%.

As to `Clc1cccc(Cl)c1CSc1nnc(-c2ccc[nH]2)o1` [2k, Dooku1], the IC50 against Piezo1 [2] was 1300 nM.

For the compound `Clc1cccc(Cl)c1CSc1nnc(-c2cccnc2)s1` [7a], on Piezo1 [3], the Emax was 50%.

As to `Clc1cccc(Cl)c1CSc1nnc(-c2cnccn2)s1` [Yoda1], on Piezo1 [4], the response was half-maximal at 2510 nM (EC50).

Take `Clc1cccc(Cl)c1CSc1nnc(-c2cnccn2)o1` [compound 11]: the Emax on Piezo1 [5] was around 70%.

For the origin of these results see publication PMC5913400, “Yoda1 analogue (Dooku1) which antagonizes Yoda1‐evoked activation of Piezo1 and aortic relaxation” (British Journal of Pharmacology, 2018).
